Patent US20090176817A1, “Method of Treatment of Diarrhea-Predominant Irritable Bowel Syndrome in a Subject” (priority 2005, published 2009)
Like-named read-outs stand apart in the source and are kept apart here.

Experiments:
Type in all cases: in vivo, human
[1] = system: diarrhea-predominant IBS subjects; test: Study S241.3.009: interruption of activities assessment; details: for Percentage of Subjects Who Worsened from Baseline: Interruption of Activities: S241.3.009, 2 mg TID, observed value
From the text: (§1) Studies S24 1.3.OO6, S24 1.3.0 1 1, and S24 1.3.009 used the following efficacy measurements: • The subjects answered the following three questions with “yes” or “no” using a phone diary at the end of each week: • a) During the last week, did you experience adequate relief of your IBS symptoms, such as abdominal pain, abdominal discomfort, abnormal bowel habits? • b) During the last week, did you experience adequate relief of your abdominal pain and/or discomfort? • c) During the last week, did you experience adequate relief of your abnormal bowel habits? • The subjects rated the following symptoms using the phone diary at the end of each day: • abdominal pain/discomfort (five-point scale); • stool consistency (seven-point Bristol Stool Scale); • stool frequency (number of bowel movements each day); • urgency (five-point scale); • straining (yes or no); • feeling of incomplete defecation (yes or no); • bloating or feeling of abdominal distension (five-point scale). • In Studies S241 A006 and S241.3.009, subjects completed the IBS-QOL Survey at Baseline (Day 1) and at the end of treatment. In Study S24 1.3.0 1 1, subjects completed the IBS-QOL Survey at Baseline (Day 1), at the end of the three-month treatment period, and at the end of rerandomized treatment.
Other secondary efficacy parameters for all three studies included: • Responder rate for the weekly diary questions on adequate relief at each month, where a responder for a month (monthly responder) was defined as a subject who answered the weekly question with “yes” at least twice for that month. The responder rate was the percentage of responders within a treatment group. The all-month responder rate for the weekly diary questions on adequate relief was also evaluated, where an all-month responder was defined as a subject who answered the weekly question with “yes” at least twice for each month. The all-month responder rate was the percentage of all-month responders within a treatment group; • Adequate relief rate for the weekly diary questions was calculated for each subject as the number of weekly assessments with adequate relief (“yes”) divided by the total number of weekly assessments; • Percentage of subjects with adequate relief for the weekly diary questions at each week; • Daily diary questions regarding abdominal pain/discomfort (five-point scale), stool consistency (seven-point scale), stool frequency (number of bowel movements each day), straining (yes or no), urgency (five-point scale), feeling of incomplete evacuation (yes or no), and bloating or feeling of abdominal distention (five-point scale); • QOL data assessed by the IBS-QOL questionnaire; and • Question to determine the interruption of activities.

clinical = details: both sexes, human, in vivo
Protocol: (§2) Various covariates were screened during development of the population pharmacokinetic model, including age, height, weight, body surface area, body mass index, race, gender, smoking status, serum creatinine levels, serum creatinine clearance, total bilirubin levels, cilansetron dose, and concomitant medication usage. Some efficacy and safety parameters were also evaluated in this population analysis using correlation analyses. Efficacy parameters evaluated included overall relief of IBS symptoms (Responder or Non-Responder), intensity of abdominal pain, number of stools and stool consistency, symptoms of abdominal and rectal discomfort (straining, urgency, feeling of incomplete defecation, passage of mucus, bloating, and feeling of abdominal distension), and upper GI symptoms at Visit 5 (vomiting, heartburn, early satiety, postprandial fullness, sensation of prolonged digestion, and nausea). Safety parameters evaluated included the top ten most frequently observed adverse events (constipation, flatulence, nausea, abdominal pain, headache, dyspepsia, infection, gastrointestinal disorders, anorexia, and diarrhea).
(§3) A statistically significant negative correlation was found between exposure (AUC and Cmax at steady state) and some efficacy parameters including change in stool consistency (adjusted for baseline) and the experience of straining. Patients with higher exposure to cilansetron and/or its 4-hydroxy metabolites were more likely to have lower stool consistency scores (a tendency for harder stools) than patients with lower exposure. […] In addition, patients with higher exposure to cilansetron were more likely to experience straining.

[2] = system: non-constipated IBS patients; test: clinical; details: linear regression
Protocol: as §2, §3

[3] = system: diarrhea-predominant IBS subjects; details: for Percentage of Subjects Who Worsened from Baseline: Daily Abdominal Pain / Percentage of Subjects Who Worsened from Baseline: Daily Urgency: S241.3.009, observed value
From the text: The primary efficacy parameter was the overall response rate for IBS symptoms, based on the weekly question concerning adequate relief of IBS symptoms (abdominal pain/discomfort, abnormal bowel habits) over the 26 weeks period. A responder was a subject who responded “yes” at least 50% of the time during his/her treatment period, with minimum treatment duration of four weeks. The two main secondary efficacy parameters were overall responder rate based on the weekly question on adequate relief of abdominal pain/discomfort and abnormal bowel habits during the 26-week treatment period. The onset of action of cilansetron was also examined using daily diary data (stool frequency, and ratings of urgency and severity) during the initial 8 weeks of trial participation. An additional key secondary efficacy parameter was the number of months (one month equals four weeks) up to six months (24-weeks) that a subject was a responder for IBS symptoms, where a responder was defined as a subject who answered the weekly question with “yes” at least twice for that month. The responder rate for the weekly diary questions on adequate relief at each month and all months, the adequate relief rate, the number of subjects with adequate relief by week, daily diary questions, IBS-QOL scores, and the interruption of activities were also assessed. Safety was evaluated by physical examination, ECG, vital signs, laboratory evaluations, concomitant medications, and AEs.
as §1
Other secondary efficacy parameters for all three studies included: • Responder rate for the weekly diary questions on adequate relief at each month, where a responder for a month (monthly responder) was defined as a subject who answered the weekly question with “yes” at least twice for that month. The responder rate was the percentage of responders within a treatment group. The all-month responder rate for the weekly diary questions on adequate relief was also evaluated, where an all-month responder was defined as a subject who answered the weekly question with “yes” at least twice for each month. […]

Q: What does the source list for Cc1nccn1C[C@H]1CCc2c(c3cccc4c3n2CCC4)C1=O [Cilansetron, (R)-(−)-4,5,6,8,9,10-hexahydro-10-[(2-methyl-1H-imidazol-1-yl)methyl]-11H-pyrido-[3,2,1-jk]-carbazol-11-one]?
A: Subjects “not at all or rarely” bothered by IBS symptoms ([1]; Endpoint): 54%; Subjects worsened from Baseline, interruption of activities ([1]; Month 1): 5%; Percentage of Subjects Who Worsened from Baseline: Interruption of Activities ([1]; Month 1): 5%; Percentage of Subjects Who Worsened from Baseline: Interruption of Activities ([1]; Month 3): 3%; Percentage of Subjects Who Worsened from Baseline: Interruption of Activities ([1]; Month 6): 2%; AUC (clinical): 360 ng·h/mL; Cmax (clinical): 65 ng/mL; Decrease in stool consistency score per 600 ng*h/mL AUC or 100 ng/mL Cmax [2]: 0.5 point; Mean number of stools per day at end of treatment ([3]; 2 mg TID): 1.96 stools per day; Stools per day ([3]; Day 2 of treatment): 2.97 stools per days; Median rate of pain-free days ([3]; Month 1 to Month 3): 0.13; Median rate of urgency-free days ([3]; Month 1 to Month 3): 0.05; Median rate of pain-free days ([3]; Month 4 to Month 6): 0.31; Median rate of urgency-free days ([3]; Month 4 to Month 6): 0.10; Percentage of Subjects Who Worsened from Baseline: Daily Abdominal Pain ([3]; Weeks 1-2, 2 mg TID): 13%; Percentage of Subjects Who Worsened from Baseline: Daily Urgency ([3]; Weeks 1-2, 2 mg TID): 7%; Percentage of Subjects Who Worsened from Baseline: Daily Abdominal Pain ([3]; Weeks 3-4, 2 mg TID): 8%; Percentage of Subjects Who Worsened from Baseline: Daily Urgency ([3]; Weeks 3-4, 2 mg TID): 5%; Percentage of Subjects Who Worsened from Baseline: Daily Abdominal Pain ([3]; Weeks 5-6, 2 mg TID): 8%; Percentage of Subjects Who Worsened from Baseline: Daily Urgency ([3]; Weeks 5-6, 2 mg TID): 5%; Percentage of Subjects Who Worsened from Baseline: Daily Abdominal Pain ([3]; Weeks 7-8, 2 mg TID): 7%; Percentage of Subjects Who Worsened from Baseline: Daily Urgency ([3]; Weeks 7-8, 2 mg TID): 4%; Percentage of Subjects Who Worsened from Baseline: Daily Abdominal Pain ([3]; Weeks 9-10, 2 mg TID): 4%; Percentage of Subjects Who Worsened from Baseline: Daily Urgency ([3]; Weeks 9-10, 2 mg TID): 6%; Percentage of Subjects Who Worsened from Baseline: Daily Abdominal Pain ([3]; Weeks 11-12, 2 mg TID): 7%; Percentage of Subjects Who Worsened from Baseline: Daily Urgency ([3]; Weeks 11-12, 2 mg TID): 4%; Percentage of Subjects Who Worsened from Baseline: Daily Abdominal Pain ([3]; Weeks 13-26, 2 mg TID): 6-8%; Percentage of Subjects Who Worsened from Baseline: Daily Urgency ([3]; Weeks 13-26, 2 mg TID): 5-8%; Subjects worsened from Baseline, daily abdominal pain ([3]; Weeks 1-2): 13%; Subjects worsened from Baseline, daily urgency ([3]; Weeks 1-2): 7%; Bloating or abdominal distention score, change from Baseline at end of treatment ([3]; in vivo): −0.75; Daily abdominal pain/discomfort score, change from Baseline at end of treatment ([3]; in vivo): −0.92; Daily stool consistency score, change from Baseline at end of treatment ([3]; in vivo): −1.40; Daily urgency score, change from Baseline at end of treatment ([3]; in vivo): −0.80; Feeling of incomplete evacuation, change from Baseline at end of treatment ([3]; in vivo): −0.25; Mean stool consistency score at end of treatment ([3]; in vivo): 4.27; Mean straining, change from Baseline at end of treatment ([3]; in vivo): 0.06; Pain-free days at end of treatment ([3]; in vivo): 0.29; Stools per day, change from Baseline at end of treatment ([3]; in vivo): −1.60; Urgency-free days at end of treatment ([3]; in vivo): 0.08; Median rate of pain-free days ([3]; six-month period): 0.19; Median rate of urgency-free days ([3]; six-month period): 0.07
